Measurements: ChEMBL document CHEMBL4033677, “Design and synthesis of pyrazolo[3,4-d]pyrimidines: Nitric oxide releasing compounds targeting hepatocellular carcinoma” (Bioorg Med Chem, 2017)

Assays:
Format in all cases: functional
NCI-H226 = test: Growth inhibition of human NCI-H226 cells assessed as cell growth at 10^-5 M incubated for 48 hrs by sulforhodamine B assay relative to control; conditions: NCI-H226, 48 h, read-out: Activity
NCI-H460 = test: Growth inhibition of human NCI-H460 cells assessed as cell growth at 10^-5 M incubated for 48 hrs by sulforhodamine B assay relative to control; conditions: NCI-H460, 48 h, read-out: Activity
COLO 205 = test: Growth inhibition of human COLO205 cells assessed as cell growth at 10^-5 M incubated for 48 hrs by sulforhodamine B assay relative to control; conditions: COLO 205, 48 h, read-out: Activity
HCC 2998 = test: Growth inhibition of human HCC2998 cells assessed as cell growth at 10^-5 M incubated for 48 hrs by sulforhodamine B assay relative to control; conditions: HCC 2998, 48 h, read-out: Activity
HCT-15 = test: Growth inhibition of human HCT15 cells assessed as cell growth at 10^-5 M incubated for 48 hrs by sulforhodamine B assay relative to control; conditions: HCT-15, 48 h, read-out: Activity
SF-268 = test: Growth inhibition of human SF268 cells assessed as cell growth at 10^-5 M incubated for 48 hrs by sulforhodamine B assay relative to control; conditions: SF-268, 48 h, read-out: Activity
SF-539 = test: Growth inhibition of human SF539 cells assessed as cell growth at 10^-5 M incubated for 48 hrs by sulforhodamine B assay relative to control; conditions: SF-539, 48 h, read-out: Activity
SNB-75 = test: Growth inhibition of human SNB75 cells assessed as cell growth at 10^-5 M incubated for 48 hrs by sulforhodamine B assay relative to control; conditions: SNB-75, 48 h, read-out: Activity
U-251 = test: Growth inhibition of human U251 cells assessed as cell growth at 10^-5 M incubated for 48 hrs by sulforhodamine B assay relative to control; conditions: U-251, 48 h, read-out: Activity
LOX IMVI = test: Growth inhibition of human LOXIMVI cells assessed as cell growth at 10^-5 M incubated for 48 hrs by sulforhodamine B assay relative to control; conditions: read-out: Activity
Malme-3M = test: Growth inhibition of human MALME-3M cells assessed as cell growth at 10^-5 M incubated for 48 hrs by sulforhodamine B assay relative to control; conditions: read-out: Activity
MDA-MB-435 = test: Growth inhibition of human MDA-MB-435 cells assessed as cell growth at 10^-5 M incubated for 48 hrs by sulforhodamine B assay relative to control; conditions: MDA-MB-435, 48 h, read-out: Activity
SK-MEL-2 = test: Growth inhibition of human SK-MEL-2 cells assessed as cell growth at 10^-5 M incubated for 48 hrs by sulforhodamine B assay relative to control; conditions: SK-MEL-2, 48 h, read-out: Activity
OVCAR-4 = test: Growth inhibition of human OVCAR4 cells assessed as cell growth at 10^-5 M incubated for 48 hrs by sulforhodamine B assay relative to control; conditions: OVCAR-4, 48 h, read-out: Activity
OVCAR-8 = test: Growth inhibition of human OVCAR8 cells assessed as cell growth at 10^-5 M incubated for 48 hrs by sulforhodamine B assay relative to control; conditions: OVCAR-8, 48 h, read-out: Activity
SK-OV-3 = test: Growth inhibition of human SKOV3 cells assessed as cell growth at 10^-5 M incubated for 48 hrs by sulforhodamine B assay relative to control; conditions: SK-OV-3, 48 h, read-out: Activity
ACHN = test: Growth inhibition of human ACHN cells assessed as cell growth at 10^-5 M incubated for 48 hrs by sulforhodamine B assay relative to control; conditions: read-out: Activity
CAKI-1 = test: Growth inhibition of human Caki1 cells assessed as cell growth at 10^-5 M incubated for 48 hrs by sulforhodamine B assay relative to control; conditions: CAKI-1, 48 h, read-out: Activity
SN12C = test: Growth inhibition of human SN12C cells assessed as cell growth at 10^-5 M incubated for 48 hrs by sulforhodamine B assay relative to control; conditions: read-out: Activity
MCF7 = test: Growth inhibition of human MCF7 cells assessed as cell growth at 10^-5 M incubated for 48 hrs by sulforhodamine B assay relative to control; conditions: MCF7, 48 h, read-out: Activity
MDA-MB-468 = test: Growth inhibition of human MDA-MB-468 cells assessed as cell growth at 10^-5 M incubated for 48 hrs by sulforhodamine B assay relative to control; conditions: MDA-MB-468, 48 h, read-out: Activity

## Cc1nc(Nc2ccc(OCCCBr)cc2)c2cnn(-c3ccccc3)c2n1
NCI-H226
  growth at 10 µM: 81.1%
NCI-H460
  growth at 10 µM: 95.1%
COLO 205
  growth at 10 µM: 106%
HCC 2998
  growth at 10 µM: 103%
HCT-15
  growth at 10 µM: 99.2%
SF-268
  growth at 10 µM: 86.9%
SF-539
  growth at 10 µM: 92.5%
SNB-75
  growth at 10 µM: 88.7%
U-251
  growth at 10 µM: 81.4%
LOX IMVI
  growth at 10 µM: 94.6%
Malme-3M
  growth at 10 µM: 98.2%
MDA-MB-435
  growth at 10 µM: 107%
SK-MEL-2
  growth at 10 µM: 98%
OVCAR-4
  growth at 10 µM: 94.3%
OVCAR-8
  growth at 10 µM: 75.7%
SK-OV-3
  growth at 10 µM: 82.9%
ACHN
  growth at 10 µM: 103%
CAKI-1
  growth at 10 µM: 93.6%
SN12C
  growth at 10 µM: 91.8%
MCF7
  growth at 10 µM: 82.4%
MDA-MB-468
  growth at 10 µM: 98.9%

## BrCCCOc1ccc(Nc2ncnc3c2cnn3-c2ccccc2)cc1
NCI-H226
  growth at 10 µM: 84.1%
NCI-H460
  growth at 10 µM: 107%
COLO 205
  growth at 10 µM: 103%
HCC 2998
  growth at 10 µM: 108%
HCT-15
  growth at 10 µM: 59.2%
SF-268
  growth at 10 µM: 86%
SF-539
  growth at 10 µM: 92.5%
SNB-75
  growth at 10 µM: 93.3%
U-251
  growth at 10 µM: 94.6%
LOX IMVI
  growth at 10 µM: 98.1%
Malme-3M
  growth at 10 µM: 112%
MDA-MB-435
  growth at 10 µM: 101%
SK-MEL-2
  growth at 10 µM: 98%
OVCAR-4
  growth at 10 µM: 93.3%
OVCAR-8
  growth at 10 µM: 92.7%
SK-OV-3
  growth at 10 µM: 90.2%
ACHN
  growth at 10 µM: 96.5%
CAKI-1
  growth at 10 µM: 98.2%
SN12C
  growth at 10 µM: 94%
MCF7
  growth at 10 µM: 88.8%
MDA-MB-468
  growth at 10 µM: 99.7%

## Cc1nc(Nc2ccc(OCCCBr)cc2)c2c(C)nn(-c3ccccc3)c2n1
NCI-H226
  growth at 10 µM: 90%
NCI-H460
  growth at 10 µM: 113%
COLO 205
  growth at 10 µM: 108%
HCC 2998
  growth at 10 µM: 107%
HCT-15
  growth at 10 µM: 94%
SF-268
  growth at 10 µM: 93.8%
SF-539
  growth at 10 µM: 98.3%
SNB-75
  growth at 10 µM: 105%
U-251
  growth at 10 µM: 90.5%
LOX IMVI
  growth at 10 µM: 98.3%
Malme-3M
  growth at 10 µM: 107%
MDA-MB-435
  growth at 10 µM: 100%
SK-MEL-2
  growth at 10 µM: 91.5%
OVCAR-4
  growth at 10 µM: 99.5%
OVCAR-8
  growth at 10 µM: 94.6%
SK-OV-3
  growth at 10 µM: 96%
ACHN
  growth at 10 µM: 108%
CAKI-1
  growth at 10 µM: 94.8%
SN12C
  growth at 10 µM: 78.8%
MCF7
  growth at 10 µM: 90.3%
MDA-MB-468
  growth at 10 µM: 95%

## Cc1nn(-c2ccccc2)c2ncnc(Nc3ccc(OCCCBr)cc3)c12
NCI-H226
  growth at 10 µM: 101%
NCI-H460
  growth at 10 µM: 123%
COLO 205
  growth at 10 µM: 105%
HCC 2998
  growth at 10 µM: 107%
HCT-15
  growth at 10 µM: 90%
SF-268
  growth at 10 µM: 103%
SF-539
  growth at 10 µM: 96%
SNB-75
  growth at 10 µM: 115%
U-251
  growth at 10 µM: 89%
LOX IMVI
  growth at 10 µM: 106%
Malme-3M
  growth at 10 µM: 106%
MDA-MB-435
  growth at 10 µM: 100%
SK-MEL-2
  growth at 10 µM: 84%
OVCAR-4
  growth at 10 µM: 99.6%
OVCAR-8
  growth at 10 µM: 94.2%
SK-OV-3
  growth at 10 µM: 81%
ACHN
  growth at 10 µM: 109%
CAKI-1
  growth at 10 µM: 92.1%
SN12C
  growth at 10 µM: 95.2%
MCF7
  growth at 10 µM: 93.8%
MDA-MB-468
  growth at 10 µM: 95.5%
